Data reported in PubChem BioAssay (NCI).
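Assay format: 96-well plates, 48-hour exposure. Abbreviation: GI50, concentration required for 50% inhibition of growth. TGI: concentration producing complete growth inhibition.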

Legend:
Assay in all cases: NCI-60 cell line screen, 48 h
[1] = tested on: OVCAR-4 ovarian
[2] = tested on: IGROV1 ovarian
[3] = tested on: SW-620 colon
[4] = tested on: UACC-257 melanoma
[5] = tested on: TK-10 renal
[6] = tested on: SF-268 CNS
[7] = tested on: SF-539 CNS
[8] = tested on: UACC-62 melanoma
[9] = tested on: NCI-H460 lung

Row | SMILES | GI50 [1] | TGI [1] | GI50 [2] | TGI [2] | GI50 [3] | TGI [3] | GI50 [4] | TGI [4] | GI50 [5] | TGI [5] | GI50 [6] | TGI [6] | GI50 [7] | TGI [7] | GI50 [8] | TGI [8] | GI50 [9] | TGI [9]
1 | O=[N+]([O-])c1ccc(-c2cc3c(Nc4ccc(Cl)c(C(F)(F)F)c4)ncnc3s2)cc1 | 1.2 µM | > 100 µM | 1.62 µM | > 100 µM | 2.86 µM | > 100 µM | 2.95 µM | > 26.8 µM | 3.56 µM | > 100 µM | 1.34 µM | > 100 µM | 1.88 µM | 9.4 µM | 1.63 µM | > 100 µM | 0.774 µM | > 100 µM
2 | Cn1c(=O)nc2n(-c3ccc(Cl)c(C(F)(F)F)c3)c3ccccc3nc-2c1=O | – | 62.9 µM | – | > 100 µM | – | 62 µM | – | 36.8 µM | – | > 100 µM | – | > 100 µM | – | > 79.9 µM | – | 35.4 µM | – | > 100 µM
3 | O=C(CC1(O)C(=O)Nc2c(Cl)ccc(Cl)c21)c1ccc(Cl)cc1Cl (stereo not drawn) | – | 23.3 µM | – | 35.4 µM | – | 56.6 µM | – | 25.1 µM | – | > 100 µM | – | 62.9 µM | – | 39.8 µM | – | 34.9 µM | – | 38.3 µM
4 | CC(=O)n1c(=O)c2cc3c(=O)n(-c4cccc(C#N)c4)c(=O)c3cc2c1=O | – | > 100 µM | – | > 100 µM | – | > 100 µM | – | > 100 µM | – | > 100 µM | – | > 100 µM | – | > 100 µM | – | > 100 µM | – | > 100 µM
5 | Cc1cccc(N(CC(=O)O)S(=O)(=O)c2ccccc2)c1 | – | > 100 µM | – | > 100 µM | – | > 100 µM | – | > 100 µM | – | > 100 µM | – | > 100 µM | – | > 100 µM | – | > 100 µM | – | > 100 µM
6 | N#C/C(=C1\SC(N=Nc2ccc(Cl)cc2)C(=O)N1c1ccccc1)c1nc2ccccc2[nH]1 (stereo not drawn) | – | 55.8 µM | – | – | – | > 100 µM | – | 92.6 µM | – | 61.6 µM | – | > 100 µM | – | > 100 µM | – | > 100 µM | – | > 100 µM
7 | CCOC(=O)N1CCN(CCCCCOc2ccccc2C2CCCCC2)CC1 | 9.2 µM | 22.2 µM | 10.4 µM | 23.1 µM | 3.08 µM | 9.81 µM | – | – | 7.99 µM | 21.7 µM | 15.3 µM | 35.1 µM | 6.39 µM | 19.1 µM | 4.86 µM | 19.7 µM | 5 µM | 17.7 µM
8 | O=C1[C@H]2ON(c3ccccc3)C(c3ccco3)[C@H]2C(=O)N1c1ccc(Cc2ccc(N3C(=O)[C@@H]4ON(c5ccccc5)C(c5ccco5)[C@@H]4C3=O)cc2)cc1 (stereo partly drawn) | – | > 100 µM | – | > 100 µM | – | > 100 µM | – | > 100 µM | – | – | – | > 100 µM | – | > 100 µM | – | > 100 µM | – | > 100 µM
9 | Cc1nc(-c2cccnc2)sc1C(=O)/C=C/c1cccc([N+](=O)[O-])c1 | – | – | – | > 100 µM | – | > 100 µM | – | > 100 µM | – | > 100 µM | – | > 100 µM | – | > 100 µM | – | > 100 µM | – | > 100 µM
10 | Cc1ccc(NC(=O)/C(Cc2nc3ccc([N+](=O)[O-])cc3[nH]c2=O)=N\NC(=O)C[n+]2ccccc2)c(C)c1 | – | 46.6 µM | – | > 100 µM | – | > 100 µM | – | > 100 µM | – | 64.4 µM | – | > 100 µM | – | > 100 µM | – | > 100 µM | – | > 100 µM
11 | CC(C)(C)c1ccc(OC2CCO2)cc1 (stereo not drawn) | – | > 100 µM | – | > 100 µM | – | 30.9 µM | – | 87.3 µM | – | > 100 µM | – | 81.5 µM | – | 98.6 µM | – | > 100 µM | – | 53.3 µM
12 | CC1=NN(C(=O)c2ccncc2)C(=O)C1N=Nc1ccc(F)cc1 (stereo not drawn) | – | > 100 µM | – | > 100 µM | – | > 100 µM | – | > 100 µM | – | > 100 µM | – | > 100 µM | – | > 100 µM | – | > 100 µM | – | > 100 µM
13 | CC(C)(C)NCC(COc1ccc([N+](=O)[O-])cc1)OP(c1ccccc1)c1ccccc1 (stereo not drawn) | – | – | – | > 100 µM | – | > 100 µM | – | > 100 µM | – | > 100 µM | – | > 100 µM | – | > 100 µM | – | > 100 µM | – | > 100 µM
14 | COc1ccc2[nH]c(-c3ccc(O)cc3)cc(=O)c2c1 | – | > 100 µM | – | > 62.8 µM | – | > 100 µM | – | > 81.2 µM | – | > 89.7 µM | – | 20.6 µM | – | 4.32 µM | – | 38.9 µM | – | 9.35 µM
15 | O=C1c2cccc3cccc(c23)C(=O)N1O | – | > 100 µM | – | > 100 µM | – | > 100 µM | – | > 100 µM | – | > 100 µM | – | > 100 µM | – | > 100 µM | – | > 100 µM | – | > 100 µM
16 | O=C(/C=C/c1cccc(O)c1)c1cccc(-n2cc(-c3ccc4ccccc4c3)[nH]c2=O)c1 | – | – | 1.33 µM | 2.79 µM | 0.223 µM | 0.605 µM | 4.13 µM | 18.4 µM | 3.45 µM | 8.53 µM | 1.73 µM | 3.55 µM | 1.55 µM | 2.89 µM | 1.8 µM | 4.92 µM | 1.67 µM | 3.19 µM
